We go through 15 compounds from US12691101B2, “Compound and method for preventing or treating of respiratory diseases comprising the same as an active ingredient” (YONSEI UNIVERSITY, UNIVERSITY - INDUSTRY FOUNDATION (UIF), priority 2019, dated 2026).

For this test, the target named is T1, human wild-type (WT)-pendrin (Homo sapiens, UniProt O43511).
T1 construct: expressed in transfected cells
T1 sequence (O43511 1-780): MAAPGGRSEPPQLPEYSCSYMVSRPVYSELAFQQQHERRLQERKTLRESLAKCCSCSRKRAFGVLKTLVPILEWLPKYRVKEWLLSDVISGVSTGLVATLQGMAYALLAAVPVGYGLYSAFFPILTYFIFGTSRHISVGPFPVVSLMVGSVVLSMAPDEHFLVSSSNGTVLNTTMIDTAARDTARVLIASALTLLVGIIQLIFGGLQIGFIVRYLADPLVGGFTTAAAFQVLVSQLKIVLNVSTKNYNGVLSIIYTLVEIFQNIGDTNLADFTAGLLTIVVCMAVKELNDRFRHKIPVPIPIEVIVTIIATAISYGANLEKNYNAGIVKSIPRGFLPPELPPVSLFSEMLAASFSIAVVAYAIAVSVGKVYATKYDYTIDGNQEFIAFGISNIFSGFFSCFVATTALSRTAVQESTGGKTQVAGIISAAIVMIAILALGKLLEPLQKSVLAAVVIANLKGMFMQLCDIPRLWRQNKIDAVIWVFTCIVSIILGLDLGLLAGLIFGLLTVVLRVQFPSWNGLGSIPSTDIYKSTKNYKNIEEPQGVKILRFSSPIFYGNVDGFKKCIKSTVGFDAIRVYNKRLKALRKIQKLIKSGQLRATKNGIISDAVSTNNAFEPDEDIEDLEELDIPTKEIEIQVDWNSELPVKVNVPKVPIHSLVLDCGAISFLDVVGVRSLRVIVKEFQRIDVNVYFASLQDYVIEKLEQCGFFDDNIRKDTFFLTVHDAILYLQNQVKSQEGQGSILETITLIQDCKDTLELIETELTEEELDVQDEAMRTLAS
The experiment in a line: Pendrin-mediated Cl^−/I^− exchange activity, YFP fluorescence in CHO-K1 cells. In kind it is cell-based. The following applies: CHO-K1, 30 μM; read-out: Pendrin inhibitory activity at 30 μM (%). Here is the method: Chinese hamster ovary (CHO)-K1 cells were maintained in a DMEM medium containing 10% fetal bovine serum (FBS), 100 units/ml penicillin and 100 100 μg/ml streptomycin. CHO-K1 cells were stably transfected with pcDNA3.1 encoding halide sensor YFP-H148Q/I152L/F46L and human wild-type (WT)-pendrin. For distribution of primary culture of human nasal cavity epithelium (HNE) cells, passage-2 cells were seeded into transwell-transparent culture inserts with a pore size of 0.45 μm (Costar Co., Cambridge, MA) at a density of 2×10^5 cells/cm^2. The cells were maintained in a 1:1 mixture of Dulbecco's modified Eagle's medium (Lonza, Walkersville, MD) and bronchial epithelial growth medium (Lonza) supplemented with the following growth factors according to the manufacturer's instructions. After immersing the cells for the first 7 days, they were exposed to the apical air interface for the remainder of the culture period. After establishment of the air-liquid interface, the cells were used between 14 and 21 days. At all stages of culture, the cells were maintained at 37° C. under 5% CO2 in an air incubator.
CHO-K1 cells expressing human WT pendrin and YFP-F46L/H148Q/I152L were plated on a 96-well microplate at a density of 2×10^4 cells per well and cultured for 48 hours. Each well of the cell cultured 96-well plate was washed with PBS of 200 μL twice and was filled with HEPES buffer solution of 50 μL, respectively. […] After culturing at 37° C. for 10 minutes, the 96-well plate was positioned on FLUOstar Omega microplate reader (BMG Labtech, Ortenberg, Germany) for fluorescence analysis. By continuously (400 ms per point) recording fluorescence for 1 second (base line), each well was individually analyzed for pendrin-mediated I^− inflow, and then at 1 second, 50 μL of NaI-substituted HEPES buffer solution (NaI replacing NaCl) was added using a liquid injector and the YFP fluorescence was recorded for 5 seconds. The initial iodide inflow rate was determined from the initial slope of fluorescence by nonlinear regression, after injection the iodide (See FIG. 1).
For measurement of Cl^−/I^− exchange activity, YFP fluorescence was measured in pendrin and halide sensor YFP expressing CHO-K1 cells. Each well of the cell cultured 96-well plate was washed with PBS of 200 μL twice, and was filled with HEPES buffer solution (140 mM NaCl, 5 mM KCl, 1 mM MgCl2, 1 mM CaCl2, 10 mM glucose and 10 mM HEPES (pH 7.4)), respectively. […] After culturing at 37° C. for 10 minutes, the 96-well plate was positioned on FLUOstar Omega microplate reader (BMG Labtech, Ortenberg, Germany) for fluorescence analysis.
By continuously (400 ms per point) recording fluorescence for 1 second (base line), each well was individually analyzed for pendrin-mediated I^− inflow, and then at 1 second, 50 μL of NaI-substituted HEPES buffer solution (140 mM NaI, 5 mM KCl, 1 mM MgCl2, 1 mM CaCl2, 10 mM glucose and 10 mM HEPES (pH 7.4)) was added using a liquid injector and the YFP fluorescence was recorded for 5 seconds. The initial iodide inflow rate was determined from the initial slope of fluorescence by nonlinear regression, after injection the iodide.
Consider `CC(C)c1ccc(C=C2N=C(c3cccc4ccccc34)OC2=O)cc1` [F62, 4-(4-Isopropylbenzylidene)-2-(naphthalen-1-yl)oxazol-5 (4H)-one], for which the inhibition at 30 µM worked out at 2.4%.

On to `Cc1ccc(C2=NC(=Cc3cccs3)C(=O)O2)cc1I` [F63, 2-(3-Iodo-4-methylphenyl)-4-(thiophen-2-ylmethylene)oxazol-5(4H)-one], for which the inhibition at 30 µM was found to be 1.6%.

`CC(C)(C)c1ccc(C2=NC(=Cc3ccc(OCc4ccccc4)cc3)C(=O)O2)cc1` [F64, 4-(4-(Benzyloxy)benzylidene)-2-(4-(tert-butyl)phenyl)oxazol-5 (4H)-one]: the inhibition at 30 µM is 2.8%.

`O=C1OC(c2ccccc2)=NC1=Cc1cccn1Cc1ccccc1Cl` [F65, 4-((1-(2-Chlorobenzyl)-1H-pyrrol-2-yl)methylene)-2-phenyloxazol-5(4H)-one]: the inhibition at 30 µM is 1.7%.

Regarding `C=CCOc1cc(N(CC)CC)ccc1C=C1N=C(c2ccc(NC(=O)c3cncc(Br)c3)cc2)OC1=O` [F66, N-(4-(4-(2-(Allyloxy)-4-(diethylamino)benzylidene)-5-oxo-4,5-dihydrooxazol-2-yl)phenyl)-5-bromonicotinamide], the inhibition at 30 µM worked out at 2.3%.

Take `CC(C)(C)c1ccc(C(=O)Oc2ccc(C=C3N=C(c4ccccc4Cl)OC3=O)cc2)cc1` [F67, 4-((2-(2-Chlorophenyl)-5-oxooxazol-4(5H)-ylidene)methyl)phenyl4-(tert-butyl)benzoate]: the inhibition at 30 µM is 3.2%.

On to `CCC(/C=C1\Sc2ccc(OC)cc2N1CC)=C1N=C(c2ccccc2)OC1=O` [F68, 4-((Z)-1-(3-ethyl-5-methoxybenzo[d]thiazol-2(3H)-ylidene)butan-2-ylidene)-2-phenyloxazol-5(4H)-one], for which the inhibition at 30 µM turned out to be 4.3%.

Take `CCOc1cc(C=C2N=C(c3ccc(NC(C)=O)cc3)OC2=O)ccc1OC(=O)c1cccs1` [F69, 4-((2-(4-Acetamidophenyl)-5-oxooxazol-4(5H)-ylidene)methyl)-2-ethoxyphenylthiophene-2-carboxylate]: the inhibition at 30 µM turned out to be 3.8%.

Consider `CCOc1ccc2nc(Sc3ccccc3)c(C=C3N=C(c4ccccc4)OC3=O)cc2c1` [F70, 4-((6-Ethoxy-2-(phenylthio)quinolin-3-yl)methylene)-2-phenyloxazol-5(4H)-one], for which the inhibition at 30 µM was 3.1%.

Consider `Cc1nn(-c2ccccc2)c(Cl)c1C=C1N=C(c2cccc(Br)c2)OC1=O` [F71, 2-(3-Bromophenyl)-4-((5-chloro-3-methyl-1-phenyl-1H-pyrazol-4-yl)methylene)oxazol-5(4H)-one], for which the inhibition at 30 µM is 4.4%.

For the compound `CC(=O)n1cc(C=C2N=C(c3ccc(Br)cc3)OC2=O)c2ccccc21` [F72, 4-((1-Acetyl-1H-indol-3-yl)methylene)-2-(4-bromophenyl)oxazol-5(4H)-one], the inhibition at 30 µM was determined as 2.8%.

Consider `CC(C)(C)c1ccc(C2=NC(=Cc3ccc(-c4cccc(C(F)(F)F)c4)o3)C(=O)O2)cc1` [F73, 2-(4-(tert-butyl)phenyl)-4-((5-(3-(trifluoromethyl)phenyl)furan-2-yl)methylene)oxazol-5(4H)-one], for which the inhibition at 30 µM was found to be 2.9%.

As for `COc1ccc2cc(C=C3N=C(c4ccccc4)OC3=O)c(=O)[nH]c2c1` [F74, 4-((7-Methoxy-2-oxo-1,2-dihydroquinolin-3-yl)methylene)-2-phenyloxazol-5(4H)-one], the inhibition at 30 µM turned out to be 2.4%.

As to `COc1ccc(C2=NC(=C3C=C(c4cccs4)Oc4ccccc43)C(=O)O2)cc1` [F75, 2-(4-Methoxyphenyl)-4-(2-(thiophen-2-yl)-4H-chromen-4-ylidene)oxazol-5 (4H)-one], the inhibition at 30 µM was found to be 2.3%.

For `Cc1ccc(C2=NC(=Cc3cn(S(=O)(=O)N(C)C)c4ccccc34)C(=O)O2)cc1` [F76, N,N-Dimethyl-3-((5-oxo-2-(p-tolyl)oxazol-4(5H)-ylidene)methyl)-1H-indole-1-sulfonamide], the inhibition at 30 µM was 1.9%.
